From patent US20100022639A1, “Methods of Inducing Weight Loss” (The Johns Hopkins University School of Medicine Licensing …, priority 2000, published 2010)

Columns and labels:
feeding behavior [1] = assay: Reversal of C-75 feeding inhibition by intracerebroventricular NPY; format: in vivo, mice; settings: 500 ng NPY ICV
Protocol: To confirm this finding, the capacity of NPY to reverse C-75-induced inhibition of feeding was examined. Mice were pretreated with 30_mg/kg of C-75 by I.P. injection. After 4 hours, mice were anaesthetized by inhaled metofane and given a direct intracerebroventricular injection of 500_ng NPY (2.5 μl total volume) or artificial CSF vehicle. Mice were placed into metabolic cages and observed for feeding behavior and monitored for food intake over 18 hours.

feeding behavior [2] = assay: ICV TOFA pretreatment and feeding inhibition by IP C-75; format: in vivo, BALB/c mice; settings: 2 μg TOFA ICV, 2 hours later 15 mg/kg C-75 IP, food intake over 2 hours
Protocol: This model predicts that feeding inhibition by FAS inhibitors should be attenuated by inhibitors of ACC's. To test this, mice were pretreated with the ACC inhibitor TOFA or vehicle by ICV injection and examined the ability of C-75, administered IP, to inhibit feeding. BALB/c mice were anesthetized with metofane and injected ICV with 2 μg of TOFA or DMSO vehicle. After 2 hours recovery, mice were injected IP with 15 mg C-75/kg or RPMI vehicle and monitored for total food intake over 2 hours. […] In addition, mice were anesthetized and injected ICV with 2 μl of RPMI or C-75 at 2.5 or 5 μg/μl and food intake monitored over 2 (shaded) and 4 (solid) hours. The efficacy of centrally administered TOFA argues for a central (CNS) mechanism of action. ICV administration of C-75 inhibited feeding by 82% (FIG. 5C), supporting the central target action of C-75. FIGS. 5(B) and (C) combine results from 3 experiments with N=3 for each (9 total).

[3] = tested on: acetyl CoA carboxylase (ACC); settings: previous studies; cited from earlier work

| Compound | feeding behavior after ICV injection (feeding behavior [1]; mice pretreated with vehicle or C-75) | total food intake in C-75-treated mice (feeding behavior [1]; monitored over 18 hours) | food intake in C-75-treated mice after TOFA pretreatment (feeding behavior [2]) | effect on fatty acid synthesis [3] | effect on feeding [3] |
| --- | --- | --- | --- | --- | --- |
| NPY: neuropeptide Y, anabolic neuropeptide produced in the hypothalamus that strongly stimulates feeding; injected ICV | rapidly led to voracious feeding | substantially elevate the total food intake | – | – | – |
| CCCCCCCCCCCCCCOc1ccc(C(=O)O)o1 [TOFA] | – | – | largely restored food intake | inhibition of fatty acid synthesis | did not inhibit feeding |
